As usually defined, the IC50 is the concentration that inhibits the measured activity by half. Lower therefore signals higher potency.

We go through 2 compounds from patent US11279707B2, “NEK inhibitors and methods of use” (DANA-FARBER CANCER INSTITUTE, INC., priority 2017, dated 2022).

Bounds are passed on as bounds.

Holding throughout (assay type): biochemical
Assay [1] addresses T1, NEK2 (Homo sapiens, UniProt P51955).
T1 sequence (P51955 1-445): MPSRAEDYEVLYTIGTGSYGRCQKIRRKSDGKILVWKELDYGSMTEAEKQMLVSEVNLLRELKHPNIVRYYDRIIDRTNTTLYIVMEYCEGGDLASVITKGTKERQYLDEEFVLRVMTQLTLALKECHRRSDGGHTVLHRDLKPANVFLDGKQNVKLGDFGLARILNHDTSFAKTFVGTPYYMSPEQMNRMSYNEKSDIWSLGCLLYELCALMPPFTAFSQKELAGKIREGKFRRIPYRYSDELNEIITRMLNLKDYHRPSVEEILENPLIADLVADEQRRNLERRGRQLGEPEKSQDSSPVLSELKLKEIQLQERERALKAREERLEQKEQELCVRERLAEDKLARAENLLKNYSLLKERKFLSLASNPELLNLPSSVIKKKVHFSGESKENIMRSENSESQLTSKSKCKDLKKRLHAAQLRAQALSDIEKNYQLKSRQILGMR
Description: kinase inhibition, NEK2.

The target in assay [2] is NEK6 (Homo sapiens, UniProt Q9HC98). Put plainly: kinase inhibition, NEK6.
Chain of NEK6 (Q9HC98 whole entry, species assumed): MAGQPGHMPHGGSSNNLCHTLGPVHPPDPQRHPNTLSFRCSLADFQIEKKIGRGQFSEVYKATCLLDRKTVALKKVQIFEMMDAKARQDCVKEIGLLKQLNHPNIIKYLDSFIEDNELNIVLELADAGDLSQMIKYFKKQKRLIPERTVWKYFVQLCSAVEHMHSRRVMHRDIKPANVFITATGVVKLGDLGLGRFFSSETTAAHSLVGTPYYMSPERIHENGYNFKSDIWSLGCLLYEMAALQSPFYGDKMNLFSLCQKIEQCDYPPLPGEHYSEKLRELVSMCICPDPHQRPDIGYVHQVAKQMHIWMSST
In assay [3] the target is T2, NEK9 (Homo sapiens, UniProt Q8TD19).
T2 sequence (Q8TD19 1-979): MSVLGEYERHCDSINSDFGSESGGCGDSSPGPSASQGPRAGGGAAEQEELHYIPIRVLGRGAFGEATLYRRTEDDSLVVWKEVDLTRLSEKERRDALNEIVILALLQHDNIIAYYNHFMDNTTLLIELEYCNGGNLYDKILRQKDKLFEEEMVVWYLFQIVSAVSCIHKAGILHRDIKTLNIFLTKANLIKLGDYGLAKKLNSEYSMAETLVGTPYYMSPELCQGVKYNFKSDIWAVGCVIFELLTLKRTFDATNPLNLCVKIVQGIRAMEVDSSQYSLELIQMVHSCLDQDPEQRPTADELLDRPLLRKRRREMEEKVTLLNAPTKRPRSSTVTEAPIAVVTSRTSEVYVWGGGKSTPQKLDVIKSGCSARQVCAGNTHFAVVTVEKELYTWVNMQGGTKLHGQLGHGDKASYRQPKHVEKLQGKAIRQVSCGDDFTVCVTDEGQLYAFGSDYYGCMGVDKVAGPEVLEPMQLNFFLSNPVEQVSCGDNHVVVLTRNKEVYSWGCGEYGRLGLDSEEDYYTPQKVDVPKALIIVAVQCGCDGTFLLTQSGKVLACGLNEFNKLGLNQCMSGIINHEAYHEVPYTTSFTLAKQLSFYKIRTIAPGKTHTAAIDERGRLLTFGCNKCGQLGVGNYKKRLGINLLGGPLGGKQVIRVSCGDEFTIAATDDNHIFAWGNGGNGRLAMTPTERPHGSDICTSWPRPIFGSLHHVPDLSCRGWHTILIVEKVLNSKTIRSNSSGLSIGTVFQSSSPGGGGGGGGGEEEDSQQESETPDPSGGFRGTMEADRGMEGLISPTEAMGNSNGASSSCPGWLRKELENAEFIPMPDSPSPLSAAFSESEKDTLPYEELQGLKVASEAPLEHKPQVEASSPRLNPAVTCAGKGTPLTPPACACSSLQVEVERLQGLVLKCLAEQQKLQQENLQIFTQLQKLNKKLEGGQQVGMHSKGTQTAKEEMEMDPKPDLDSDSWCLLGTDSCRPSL
Put plainly: kinase inhibition, NEK9.

Assay [4] concerns the target SLK (Homo sapiens, UniProt Q9H2G2). Description: kinase inhibition, SLK.
The target of assay [5] is CLK. Put plainly: kinase inhibition, CLK.
The target in assay [6] is T3, DMPK (Homo sapiens, UniProt Q09013).
T3 sequence (Q09013 1-629): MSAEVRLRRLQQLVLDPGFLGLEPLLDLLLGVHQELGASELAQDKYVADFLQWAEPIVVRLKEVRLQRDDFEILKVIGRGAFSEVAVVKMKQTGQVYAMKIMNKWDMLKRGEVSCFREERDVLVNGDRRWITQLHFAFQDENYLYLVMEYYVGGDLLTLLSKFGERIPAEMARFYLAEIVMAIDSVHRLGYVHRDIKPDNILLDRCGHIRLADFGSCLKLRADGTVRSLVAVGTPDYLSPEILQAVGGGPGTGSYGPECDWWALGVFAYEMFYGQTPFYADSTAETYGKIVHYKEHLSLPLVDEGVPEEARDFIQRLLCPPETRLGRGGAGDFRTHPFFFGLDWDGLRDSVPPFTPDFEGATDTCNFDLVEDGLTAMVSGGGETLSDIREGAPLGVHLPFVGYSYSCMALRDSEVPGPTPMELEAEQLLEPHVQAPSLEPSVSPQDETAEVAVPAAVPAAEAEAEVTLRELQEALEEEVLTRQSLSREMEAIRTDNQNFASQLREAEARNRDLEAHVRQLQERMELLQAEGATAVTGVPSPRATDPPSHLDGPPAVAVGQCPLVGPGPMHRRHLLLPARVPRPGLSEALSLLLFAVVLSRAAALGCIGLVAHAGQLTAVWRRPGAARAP
Put plainly: kinase inhibition, DMPK.

Assay [7] concerns the target NEK7 (Homo sapiens, UniProt Q8TDX7). Description: kinase inhibition, NEK7.
The target of assay [8] is GSK3B (Homo sapiens, UniProt P49841). Description: kinase inhibition, GSK3B.
Chain of GSK3B (P49841 whole entry, species assumed): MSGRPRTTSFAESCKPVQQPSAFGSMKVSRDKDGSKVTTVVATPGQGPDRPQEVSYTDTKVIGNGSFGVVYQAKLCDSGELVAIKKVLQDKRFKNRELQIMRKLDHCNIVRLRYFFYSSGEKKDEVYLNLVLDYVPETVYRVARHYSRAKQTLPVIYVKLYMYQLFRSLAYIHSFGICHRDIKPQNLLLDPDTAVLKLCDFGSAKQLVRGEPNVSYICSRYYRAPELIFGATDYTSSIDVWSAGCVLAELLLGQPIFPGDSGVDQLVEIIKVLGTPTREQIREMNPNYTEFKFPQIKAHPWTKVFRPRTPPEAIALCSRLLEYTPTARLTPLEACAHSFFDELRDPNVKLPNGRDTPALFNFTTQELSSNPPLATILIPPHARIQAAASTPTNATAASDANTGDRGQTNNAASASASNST
For assay [9], the target named is T4, MERTK (Homo sapiens, UniProt Q12866).
T4 sequence (Q12866 21-999): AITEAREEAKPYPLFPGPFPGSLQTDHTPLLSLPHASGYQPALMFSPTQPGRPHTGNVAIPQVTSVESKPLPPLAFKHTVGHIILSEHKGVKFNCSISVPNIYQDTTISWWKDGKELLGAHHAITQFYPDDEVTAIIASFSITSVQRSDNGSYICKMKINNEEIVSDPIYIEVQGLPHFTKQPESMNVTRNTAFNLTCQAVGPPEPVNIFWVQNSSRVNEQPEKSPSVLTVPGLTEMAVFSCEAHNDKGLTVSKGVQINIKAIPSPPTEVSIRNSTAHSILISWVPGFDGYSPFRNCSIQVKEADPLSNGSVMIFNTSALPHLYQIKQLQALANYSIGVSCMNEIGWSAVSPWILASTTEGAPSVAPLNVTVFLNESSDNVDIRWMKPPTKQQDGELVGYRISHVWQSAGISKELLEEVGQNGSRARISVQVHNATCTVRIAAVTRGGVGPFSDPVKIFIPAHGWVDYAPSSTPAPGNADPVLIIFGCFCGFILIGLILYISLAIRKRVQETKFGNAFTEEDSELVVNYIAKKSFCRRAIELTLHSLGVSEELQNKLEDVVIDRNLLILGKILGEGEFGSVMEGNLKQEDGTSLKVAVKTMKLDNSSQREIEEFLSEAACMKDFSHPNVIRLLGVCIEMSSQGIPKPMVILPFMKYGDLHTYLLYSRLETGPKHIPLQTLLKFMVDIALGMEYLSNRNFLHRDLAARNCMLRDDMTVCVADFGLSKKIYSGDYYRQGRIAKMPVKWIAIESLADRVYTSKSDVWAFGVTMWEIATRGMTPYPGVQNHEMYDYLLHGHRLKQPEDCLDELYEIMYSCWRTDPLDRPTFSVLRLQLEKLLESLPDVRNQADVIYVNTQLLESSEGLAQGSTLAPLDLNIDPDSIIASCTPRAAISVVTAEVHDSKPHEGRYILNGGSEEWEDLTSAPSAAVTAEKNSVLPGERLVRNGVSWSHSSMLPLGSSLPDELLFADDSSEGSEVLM
Put plainly: kinase inhibition, MERTK.

For assay [10], the target named is T5, AXL (Homo sapiens, UniProt P30530).
T5 sequence (P30530 26-894): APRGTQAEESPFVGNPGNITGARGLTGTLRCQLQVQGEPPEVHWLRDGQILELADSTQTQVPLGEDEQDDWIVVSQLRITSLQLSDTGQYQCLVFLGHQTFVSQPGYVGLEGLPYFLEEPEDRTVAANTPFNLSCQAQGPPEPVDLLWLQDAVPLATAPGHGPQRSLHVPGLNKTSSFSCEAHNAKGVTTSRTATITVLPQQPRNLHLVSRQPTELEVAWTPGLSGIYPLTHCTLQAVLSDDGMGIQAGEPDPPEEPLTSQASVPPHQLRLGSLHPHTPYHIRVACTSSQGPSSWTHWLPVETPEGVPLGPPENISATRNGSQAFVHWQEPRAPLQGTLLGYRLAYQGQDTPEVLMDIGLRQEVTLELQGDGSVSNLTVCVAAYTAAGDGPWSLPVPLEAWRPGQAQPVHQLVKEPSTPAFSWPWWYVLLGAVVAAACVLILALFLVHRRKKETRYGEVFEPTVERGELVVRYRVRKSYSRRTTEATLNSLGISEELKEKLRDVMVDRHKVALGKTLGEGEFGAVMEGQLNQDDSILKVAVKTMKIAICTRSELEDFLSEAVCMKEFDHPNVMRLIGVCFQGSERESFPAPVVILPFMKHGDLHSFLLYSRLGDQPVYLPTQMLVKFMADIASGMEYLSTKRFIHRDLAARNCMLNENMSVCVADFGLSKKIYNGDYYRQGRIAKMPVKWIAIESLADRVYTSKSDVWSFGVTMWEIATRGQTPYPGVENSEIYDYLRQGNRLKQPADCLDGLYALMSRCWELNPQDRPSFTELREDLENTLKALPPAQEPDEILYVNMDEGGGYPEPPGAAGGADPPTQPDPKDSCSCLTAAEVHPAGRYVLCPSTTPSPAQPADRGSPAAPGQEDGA
Put plainly: kinase inhibition, AXL.

Assay [11] addresses RSK1 (Homo sapiens, UniProt Q15418). Description: kinase inhibition, RSK1.

Chain of NEK7 (Q8TDX7 whole entry, species assumed): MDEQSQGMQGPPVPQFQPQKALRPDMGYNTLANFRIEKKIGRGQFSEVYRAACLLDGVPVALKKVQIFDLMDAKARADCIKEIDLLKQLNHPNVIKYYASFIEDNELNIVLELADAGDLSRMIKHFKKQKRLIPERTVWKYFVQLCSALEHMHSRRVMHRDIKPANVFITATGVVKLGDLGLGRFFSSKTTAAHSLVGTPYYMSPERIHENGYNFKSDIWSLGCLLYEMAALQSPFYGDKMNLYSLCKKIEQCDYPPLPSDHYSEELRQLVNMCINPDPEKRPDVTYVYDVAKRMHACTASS
Chain of RSK1 (Q15418 whole entry, species assumed): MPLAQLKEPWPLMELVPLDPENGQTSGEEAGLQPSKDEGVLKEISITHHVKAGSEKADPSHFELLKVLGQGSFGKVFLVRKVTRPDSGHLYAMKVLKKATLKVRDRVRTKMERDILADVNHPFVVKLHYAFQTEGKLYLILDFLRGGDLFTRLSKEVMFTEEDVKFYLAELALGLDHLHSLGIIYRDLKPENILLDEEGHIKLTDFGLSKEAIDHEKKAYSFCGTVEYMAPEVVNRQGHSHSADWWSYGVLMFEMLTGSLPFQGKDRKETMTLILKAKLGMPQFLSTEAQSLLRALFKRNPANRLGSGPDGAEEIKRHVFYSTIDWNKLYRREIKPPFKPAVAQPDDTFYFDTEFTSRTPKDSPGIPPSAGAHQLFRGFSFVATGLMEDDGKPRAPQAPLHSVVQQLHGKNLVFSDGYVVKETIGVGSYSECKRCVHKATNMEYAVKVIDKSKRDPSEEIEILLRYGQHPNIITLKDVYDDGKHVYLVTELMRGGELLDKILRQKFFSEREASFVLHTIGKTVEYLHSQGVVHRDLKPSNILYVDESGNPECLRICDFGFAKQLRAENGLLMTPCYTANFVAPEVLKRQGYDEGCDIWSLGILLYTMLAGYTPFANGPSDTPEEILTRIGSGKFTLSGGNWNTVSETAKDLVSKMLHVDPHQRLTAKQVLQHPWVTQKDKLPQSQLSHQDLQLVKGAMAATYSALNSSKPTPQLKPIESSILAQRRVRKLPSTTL
Chain of SLK (Q9H2G2 whole entry): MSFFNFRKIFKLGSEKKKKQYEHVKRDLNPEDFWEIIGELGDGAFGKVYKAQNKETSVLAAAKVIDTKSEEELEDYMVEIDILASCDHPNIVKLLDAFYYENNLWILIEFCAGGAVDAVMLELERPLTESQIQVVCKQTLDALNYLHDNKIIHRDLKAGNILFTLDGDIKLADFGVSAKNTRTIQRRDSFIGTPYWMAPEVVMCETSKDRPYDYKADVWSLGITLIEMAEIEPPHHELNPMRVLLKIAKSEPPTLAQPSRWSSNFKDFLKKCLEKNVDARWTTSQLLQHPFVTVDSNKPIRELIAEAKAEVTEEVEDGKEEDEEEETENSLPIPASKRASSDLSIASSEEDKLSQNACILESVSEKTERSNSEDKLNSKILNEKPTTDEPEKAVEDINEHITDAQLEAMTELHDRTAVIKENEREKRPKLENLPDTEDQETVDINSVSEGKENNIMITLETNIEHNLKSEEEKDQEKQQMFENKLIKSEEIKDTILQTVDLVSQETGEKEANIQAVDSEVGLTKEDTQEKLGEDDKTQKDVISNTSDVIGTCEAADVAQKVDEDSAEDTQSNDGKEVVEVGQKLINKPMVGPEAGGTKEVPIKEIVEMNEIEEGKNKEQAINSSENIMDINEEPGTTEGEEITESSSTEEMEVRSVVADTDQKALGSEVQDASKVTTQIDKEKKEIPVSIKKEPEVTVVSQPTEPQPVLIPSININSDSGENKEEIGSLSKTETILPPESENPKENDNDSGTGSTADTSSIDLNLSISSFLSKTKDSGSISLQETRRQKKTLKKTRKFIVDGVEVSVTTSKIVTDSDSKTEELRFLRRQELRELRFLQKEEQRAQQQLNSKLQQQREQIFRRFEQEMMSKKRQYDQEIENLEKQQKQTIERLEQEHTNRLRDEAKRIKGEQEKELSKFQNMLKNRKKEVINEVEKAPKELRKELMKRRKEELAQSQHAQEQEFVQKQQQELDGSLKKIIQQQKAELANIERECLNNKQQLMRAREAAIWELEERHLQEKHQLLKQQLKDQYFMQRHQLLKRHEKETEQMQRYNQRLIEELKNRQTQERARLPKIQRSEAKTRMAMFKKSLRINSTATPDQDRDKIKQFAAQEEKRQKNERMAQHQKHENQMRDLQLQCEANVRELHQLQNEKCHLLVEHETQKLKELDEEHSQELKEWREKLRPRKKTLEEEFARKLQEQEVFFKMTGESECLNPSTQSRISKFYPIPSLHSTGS

For `Cn1c(=O)c2cc3ccccc3n2c2nc(Nc3ccc(N4CCC(N5CCOCC5)CC4)cc3)ncc21` [Compound I-17], the IC50 in assay [1] is at most 50 nM; in [2] it was 250 to 1000 nM; in assay [3], at most 50 nM; in [4], 50 to 250 nM; in [5], 50 to 250 nM; in assay [6], 50 to 250 nM.

As for `CN1CCN(c2ccc(Nc3ncc4c(n3)N3c5ccccc5CC3C(=O)N4C)cc2)CC1` (stereo not drawn) [Compound I-7], the IC50 was 50 to 250 nM in [1]; 1000 to 5000 nM in assay [2]; 250 to 1000 nM in assay [7]; at most 50 nM in assay [3]; 250 to 1000 nM in assay [8]; 250 to 1000 nM in assay [9]. The IC50 fell in the range of 250 to 1000 nM in assay [10], 250 to 1000 nM in [11] and 50 to 250 nM in [5].
